Test results: patent US20110178094A1, “Oral Formulation” (H. LUNDBECK A/S, priority 2008, published 2011)

Legend:
[1] = test system: condition avoidance response (CAR) model; experiment: Condition avoidance response (CAR) model; type: in vivo; details: rats; at very low levels of D2 receptor occupancy
Source text: The compound of formula I is a putative antipsychotic compound with affinity for both dopamine D1 and D2 receptors.

[2] = test system: preclinical models of cognitive dysfunctions; experiment: Preclinical models of cognitive dysfunctions; type: in vivo
Source text: It is believed that the 5-HT6 receptor affinity of the compound of formula I is involved in the precognitive effects of the compound. Furthermore, it is believed that such pro-cognitive effect of the compound of formula I will be evident at a low level of D2 receptor occupancy, which is beneficial in terms of the side-effect profile.

[3] = Study of the compatibility of the excipients and the compound; type: physicochemical; details: components used in the tablet formulation
Source text: Based on this, a traditional wet granulation, tabletting and film-coating process was developed using standard methods and excipients.

dopamine D1 receptors = dopamine D1 receptors (Homo sapiens, UniProt P21728); details: reported in WO 2005/016900; cited from earlier work
dopamine D2 receptors = dopamine D2 receptors (Homo sapiens, UniProt P14416); details: reported in WO 2005/016900; cited from earlier work
5-HT2 receptor = details: reported in WO 2005/016900; cited from earlier work
α1 adrenoceptors = details: reported in WO 2005/016900; cited from earlier work

Sequence of dopamine D1 receptors (P21728 whole entry): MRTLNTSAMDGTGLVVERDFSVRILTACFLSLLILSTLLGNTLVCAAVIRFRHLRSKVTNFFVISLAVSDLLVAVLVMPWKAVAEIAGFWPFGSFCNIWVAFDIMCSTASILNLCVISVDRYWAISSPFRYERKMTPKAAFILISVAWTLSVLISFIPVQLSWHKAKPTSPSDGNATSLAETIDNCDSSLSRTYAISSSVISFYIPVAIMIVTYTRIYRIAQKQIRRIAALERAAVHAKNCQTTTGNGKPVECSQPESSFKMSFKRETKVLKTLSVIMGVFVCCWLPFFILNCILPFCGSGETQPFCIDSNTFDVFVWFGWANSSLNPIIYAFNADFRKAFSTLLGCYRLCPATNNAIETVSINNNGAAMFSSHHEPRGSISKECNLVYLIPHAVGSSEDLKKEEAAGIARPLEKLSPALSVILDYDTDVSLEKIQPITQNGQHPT
Sequence of dopamine D2 receptors (P14416 whole entry): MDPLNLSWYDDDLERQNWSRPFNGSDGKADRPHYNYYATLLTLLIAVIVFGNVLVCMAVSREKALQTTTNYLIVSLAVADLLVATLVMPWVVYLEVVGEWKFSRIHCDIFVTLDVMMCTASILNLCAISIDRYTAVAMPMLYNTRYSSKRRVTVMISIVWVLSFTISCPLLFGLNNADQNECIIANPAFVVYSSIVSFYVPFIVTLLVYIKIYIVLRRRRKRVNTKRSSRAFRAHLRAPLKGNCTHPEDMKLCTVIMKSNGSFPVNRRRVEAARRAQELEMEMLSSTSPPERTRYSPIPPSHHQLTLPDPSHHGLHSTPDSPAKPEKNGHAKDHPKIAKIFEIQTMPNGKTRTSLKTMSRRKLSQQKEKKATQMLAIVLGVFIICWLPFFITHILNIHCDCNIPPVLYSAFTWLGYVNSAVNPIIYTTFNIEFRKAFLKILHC

With `CN1CCN([C@@H]2C[C@@H](c3ccccc3)c3ccc(Cl)cc32)CC1(C)C` [compound of formula I, 4-((1R,3S)-6-chloro-3-phenylindan-1-yl)-1,2,2-trimethylpiperazine] the “antipsychotic activity in CAR model” value [1] was “possesses antipsychotic activity”, the cognition enhancing properties [2] was “cognition enhancing properties” and the “compatibility of the tablet excipients with the compound” value [3] was “compatible”. The “affinity for dopamine D1 receptors (antagonist)” value (dopamine D1 receptors) was “high affinity”, the “affinity for dopamine D2 receptors (antagonist)” value (dopamine D2 receptors) was “high affinity” and the “affinity for the 5-HT2 receptor (antagonist)” value (5-HT2 receptor) was “high affinity”. For the same compound, the “affinity for α1 adrenoceptors” value (α1 adrenoceptors) was “high affinity”.
